In patent US20040058947A1, “Composition for the prevention or treatment of learning disorders in children suffering from attention deficit/hyperactive disorder” (priority 2001, published 2004):

Assays:
[1] = system: cortical neurons isolated from mouse foetuses; assay: Effect on glutamate-induced cortical neuronal toxicity; type: cell-based; details: monosodium glutamate 1 nmol·L^−1; L-carnitine/acetyl L-carnitine 5 nmol·L^−1, huperzine A 10 nmol·L^−1, added half an hour before glutamate; glutamate alone 20%
Procedure: As is known , persistent stimulation of glutamate receptors induces a neurotoxic effect leading to the death of neuronal cells: this is one of the mechanisms regarding as being responsible for the pathogenesis of Alzheimer's disease. The aim of these tests was to observe whether preincubation of cortical neuronal cells with L-carnitine+acetyl L-carnitine carnitine alone or in combination with huperzine A may lead to a reduction of glutamate-induced toxicity and to greater survival of neuronal cells. In these tests, cortical neurons isolated from mouse foetuses were used, according to the method described by Lin [Lin L., J. Nanjing Univ. (Natural Science Edition) 31:514, 1995—Lin L., Acta Pharmacol. Sinica, 17:221, 1996]. After isolating the cells, they were suspended on plates with a density of 6.4×10^8 cells/m^2 surface. To prevent proliferation of non-neuronal cells, […]. […]
The solutions of L-carnitine/acetyl L-carnitine or huperzine A were added to the Locke solution half an hour before monosodium glutamate. […] according to the procedure disclosed by Green (Green L. M., J. Immunol. Methods, 70:257, 1984).

[2] = system: glutamate-induced spontaneous motility in mice; assay: Glutamate excitability tests (hypermotility after intracerebral glutamate); type: in vivo; details: treatment one hour prior, huperzine A 0.05 mg/kg, L-carnitine 200 mg/kg + acetyl L-carnitine 50 mg/kg
Text: Excitatory amino acids such as glutamate, if administered by intracerebral injection, produce a series of behavioural effects, the most evident of which is hypermotility.
To evaluate the effect of huperzine A and L-carnitine/acetyl L-carnitine and of a combination of these, mice received intracerebral injections of increasing doses of glutamate according to the method described by Lama (Lama E., Acta Pharmacol. Sinica, 9:252, 1988). The increase in spontaneous motility of these animals placed in a box with transparent walls was then evaluated by means of a photoelectric cell which recorded the number of passes for a period of five minutes. The motility test was conduced both in control animals and in animals treated one hour prior to injection of glutamate with huperzine A and with L-carnitine/acetyl L- carnitine and with a combination of these compounds. The results of these tests (see Table 2) indicate that treatment with huperzine A reduces the increase in motility induced by glutamate in mice, but that the greastest reduction is that obtained by administration of the combination of huperzine A and L-carnitine/acetyl L-carnitine.

C/C=C1\[C@H]2C=C(C)C[C@]1(N)c1ccc(=O)[nH]c1C2 [huperzine A]
survival rate of neuronal cells [1]: 30%
N. passes in 5 min observation ([2]; Glutamate 1 ng/mouse intracerebral, glutamate control 241 ± 35): 226 ± 24
N. passes in 5 min observation ([2]; Glutamate 5 ng/mouse intracerebral, glutamate control 364 ± 39): 296 ± 16
